Test results taken from ChEMBL document CHEMBL1123668, “Inhibition of aspartic proteinases by peptides containing lysine and ornithine side-chain analogues of statine” (J Med Chem, 1987).
Square brackets hold non-standard residues; d marks the D form. Peptide text beside a SMILES is read from it. * marks the point of attachment. ξ: configuration not given here. Sta = CC(C)C[C@H](N)[C@@H](O)CC(=O)O; Isovaleryl = CC(C)CC(=O)*; ξF = NC(Cc1ccccc1)C(=O)O

Legend:
[1] = Compound was evaluated for the inhibition of […] penicillopepsin; Value is time-dependent inhibition (TDI) with T1/2 > 30 s)
Rhizopuspepsin = molecular target: T1, Rhizopuspepsin (Rhizopus microsporus var. chinensis, UniProt P06026); experiment: Inhibition of Rhizopus chinensis pepsin
T1 sequence (P06026 whole entry): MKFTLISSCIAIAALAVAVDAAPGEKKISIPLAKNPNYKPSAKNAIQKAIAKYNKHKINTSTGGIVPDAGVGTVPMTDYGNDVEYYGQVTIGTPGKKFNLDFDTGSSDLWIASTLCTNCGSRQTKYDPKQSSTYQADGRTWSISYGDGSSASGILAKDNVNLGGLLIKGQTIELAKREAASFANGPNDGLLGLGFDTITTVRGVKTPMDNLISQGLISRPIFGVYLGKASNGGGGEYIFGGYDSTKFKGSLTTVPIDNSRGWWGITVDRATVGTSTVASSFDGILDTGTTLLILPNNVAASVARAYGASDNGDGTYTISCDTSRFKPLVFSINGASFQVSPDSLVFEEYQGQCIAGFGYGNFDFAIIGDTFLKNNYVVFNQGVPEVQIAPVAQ

[2] = Compound was evaluated for the inhibition of […] penicillopepsin; ( Value is time-dependent inhibition (TDI) with T1/2 > 30 s.)
[3] = Compound was evaluated for the inhibition of porcine penicillopepsin
Pepsin A = Pepsin A (Sus scrofa, UniProt P00791); experiment: Compound was evaluated for the inhibition of porcine pepsin
Chain of Pepsin A (P00791 whole entry): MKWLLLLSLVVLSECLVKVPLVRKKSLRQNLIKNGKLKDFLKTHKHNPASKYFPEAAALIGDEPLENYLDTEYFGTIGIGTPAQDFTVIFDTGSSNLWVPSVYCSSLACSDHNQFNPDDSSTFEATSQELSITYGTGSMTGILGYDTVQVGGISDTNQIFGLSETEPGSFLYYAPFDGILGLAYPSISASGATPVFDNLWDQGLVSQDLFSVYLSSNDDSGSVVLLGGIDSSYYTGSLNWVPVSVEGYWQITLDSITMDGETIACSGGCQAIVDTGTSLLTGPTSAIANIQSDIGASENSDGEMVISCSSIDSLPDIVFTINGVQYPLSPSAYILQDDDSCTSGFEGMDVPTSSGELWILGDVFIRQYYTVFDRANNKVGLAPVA

| Compound | Ki [1] | Ki (Rhizopuspepsin) | Ki [2] | Ki [3] | Ki (Pepsin A) |
| --- | --- | --- | --- | --- | --- |
| CCOC(=O)CC(O)[C@H](CCCN)NC(=O)[C@H](NC(=O)C(NC(=O)CC(C)C)C(C)C)C(C)C (stereo partly specified) | 1.1 nM | 47 nM | – | – | – |
| COC(=O)C(Cc1ccccc1)NC(=O)C[C@H](O)[C@H](CCCCN)NC(=O)[C@H](NC(=O)C(NC(=O)CC(C)C)C(C)C)C(C)C (stereo partly specified) | – | – | 0.08 nM | – | – |
| CCOC(=O)C[C@H](O)[C@H](CCCCNC(C)=O)NC(=O)[C@H](NC(=O)C(NC(=O)CC(C)C)C(C)C)C(C)C (stereo partly specified) | – | 29 nM | – | 100 nM | 1900 nM |
| CCOC(=O)C[C@H](O)[C@H](CCCCN)NC(=O)[C@H](NC(=O)C(NC(=O)CC(C)C)C(C)C)C(C)C (stereo partly specified) | – | 33 nM | – | – | – |
| COC(=O)C(Cc1ccccc1)NC(=O)C[C@H](O)[C@H](CC(C)C)NC(=O)[C@@H](NC(=O)[C@@H](NC(=O)CC(C)C)C(C)C)C(C)C (stereo partly specified) (Isovaleryl-VV[Sta][ξF]-OMe) | – | 11 nM | 1.3 nM | – | – |
| CCOC(=O)C[C@H](O)[C@H](CC(C)C)NC(=O)[C@@H](NC(=O)[C@@H](NC(=O)CC(C)C)C(C)C)C(C)C (Isovaleryl-Val-Val-[Sta]-OEt) | – | 42 nM | – | 47 nM | – |
